Assay results: PubChem BioAssay (NCI)
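1) Cells in 96-well plates. 2) Compound, 48 h, 5 concentrations. 3) Linear interpolation between surrounding doses. 4) Unreached endpoint = highest concentration. At the GI50, growth is halved. Definition used: TGI = concentration required for complete inhibition of growth.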

Experiments:
Assay in all cases: NCI anticancer screen, dose series, 48 h
786-0 renal = tested on: 786-0 renal
A498 renal = tested on: A498 renal
A549 NSCLC = tested on: A549 NSCLC
ACHN renal = tested on: ACHN renal
BT-549 breast = tested on: BT-549 breast
CAKI-1 renal = tested on: CAKI-1 renal
CCRF-CEM leukemia = tested on: CCRF-CEM leukemia
COLO 205 colon = tested on: COLO 205 colon
DU-145 prostate = tested on: DU-145 prostate
EKVX NSCLC = tested on: EKVX NSCLC
HCC-2998 colon = tested on: HCC-2998 colon
HCT-116 colon = tested on: HCT-116 colon
HCT-15 colon = tested on: HCT-15 colon
HL-60(TB) leukemia = tested on: HL-60(TB) leukemia
HOP-62 NSCLC = tested on: HOP-62 NSCLC
HOP-92 NSCLC = tested on: HOP-92 NSCLC
HS 578T breast = tested on: HS 578T breast
HT29 colon = tested on: HT29 colon
IGROV1 ovarian = tested on: IGROV1 ovarian
K-562 leukemia = tested on: K-562 leukemia
KM12 colon = tested on: KM12 colon
LOX IMVI melanoma = tested on: LOX IMVI melanoma
M14 melanoma = tested on: M14 melanoma
MALME-3M melanoma = tested on: MALME-3M melanoma
MCF7 breast = tested on: MCF7 breast
MDA-MB-231 breast = tested on: MDA-MB-231 breast
MDA-MB-435 = tested on: MDA-MB-435
MOLT-4 leukemia = tested on: MOLT-4 leukemia
NCI-H226 lung = tested on: NCI-H226 lung
NCI-H23 lung = tested on: NCI-H23 lung
NCI-H460 lung = tested on: NCI-H460 lung
NCI-H522 lung = tested on: NCI-H522 lung
NCI/ADR-RES ovarian = tested on: NCI/ADR-RES ovarian
OVCAR-4 ovarian = tested on: OVCAR-4 ovarian
OVCAR-5 ovarian = tested on: OVCAR-5 ovarian
OVCAR-8 ovarian = tested on: OVCAR-8 ovarian
PC-3 prostate = tested on: PC-3 prostate
RPMI-8226 leukemia = tested on: RPMI-8226 leukemia
RXF 393 renal = tested on: RXF 393 renal
SF-268 CNS = tested on: SF-268 CNS
SF-295 CNS = tested on: SF-295 CNS
SF-539 CNS = tested on: SF-539 CNS
SK-MEL-2 melanoma = tested on: SK-MEL-2 melanoma
SK-MEL-28 melanoma = tested on: SK-MEL-28 melanoma
SK-MEL-5 melanoma = tested on: SK-MEL-5 melanoma
SK-OV-3 ovarian = tested on: SK-OV-3 ovarian
SN12C renal = tested on: SN12C renal
SNB-19 CNS = tested on: SNB-19 CNS
SNB-75 CNS = tested on: SNB-75 CNS
SR leukemia = tested on: SR leukemia
SW-620 colon = tested on: SW-620 colon
T-47D breast = tested on: T-47D breast
TK-10 renal = tested on: TK-10 renal
U251 CNS = tested on: U251 CNS
UACC-257 melanoma = tested on: UACC-257 melanoma
UACC-62 melanoma = tested on: UACC-62 melanoma
UO-31 renal = tested on: UO-31 renal

N#Cc1cnc2ccc(-c3cnc(N)nc3)cc2c1N1CCc2cc(F)c(Cl)cc21
GI50 (786-0 renal): 425 nM
TGI (786-0 renal): 3950 nM
GI50 (A498 renal): 147 nM
TGI (A498 renal): 552 nM
GI50 (A549 NSCLC): 479 nM
TGI (A549 NSCLC): 13200 nM
GI50 (ACHN renal): 489 nM
TGI (ACHN renal): 11900 nM
GI50 (BT-549 breast): 239 nM
TGI (BT-549 breast): 1800 nM
GI50 (CAKI-1 renal): 268 nM
TGI (CAKI-1 renal): 2800 nM
GI50 (CCRF-CEM leukemia): 486 nM
TGI (CCRF-CEM leukemia): > 100000 nM
GI50 (COLO 205 colon): 795 nM
TGI (COLO 205 colon): 2850 nM
GI50 (DU-145 prostate): 510 nM
TGI (DU-145 prostate): > 39500 nM
GI50 (EKVX NSCLC): 496 nM
TGI (EKVX NSCLC): 3950 nM
GI50 (HCC-2998 colon): 572 nM
TGI (HCC-2998 colon): 7500 nM
GI50 (HCT-116 colon): 917 nM
TGI (HCT-116 colon): 2640 nM
GI50 (HCT-15 colon): 385 nM
TGI (HCT-15 colon): 11500 nM
GI50 (HL-60(TB) leukemia): 705 nM
TGI (HL-60(TB) leukemia): 4380 nM
GI50 (HOP-62 NSCLC): 434 nM
TGI (HOP-62 NSCLC): > 21700 nM
GI50 (HOP-92 NSCLC): 201 nM
TGI (HOP-92 NSCLC): 1180 nM
GI50 (HS 578T breast): 186 nM
TGI (HS 578T breast): 774 nM
GI50 (HT29 colon): 587 nM
TGI (HT29 colon): 9740 nM
GI50 (IGROV1 ovarian): 235 nM
TGI (IGROV1 ovarian): 1260 nM
GI50 (K-562 leukemia): 997 nM
TGI (K-562 leukemia): > 100000 nM
GI50 (KM12 colon): 773 nM
TGI (KM12 colon): 4180 nM
GI50 (LOX IMVI melanoma): 355 nM
TGI (LOX IMVI melanoma): 7970 nM
GI50 (M14 melanoma): 612 nM
TGI (M14 melanoma): 8510 nM
GI50 (MALME-3M melanoma): 366 nM
TGI (MALME-3M melanoma): 2960 nM
GI50 (MCF7 breast): 300 nM
TGI (MCF7 breast): 14000 nM
GI50 (MDA-MB-231 breast): 450 nM
TGI (MDA-MB-231 breast): 7930 nM
GI50 (MDA-MB-435): 495 nM
TGI (MDA-MB-435): 3560 nM
GI50 (MOLT-4 leukemia): 577 nM
TGI (MOLT-4 leukemia): > 64600 nM
GI50 (NCI-H226 lung): 555 nM
TGI (NCI-H226 lung): 11300 nM
GI50 (NCI-H23 lung): 1010 nM
TGI (NCI-H23 lung): 9840 nM
GI50 (NCI-H460 lung): 425 nM
TGI (NCI-H460 lung): 11000 nM
GI50 (NCI-H522 lung): 1270 nM
TGI (NCI-H522 lung): 8080 nM
GI50 (NCI/ADR-RES ovarian): 827 nM
TGI (NCI/ADR-RES ovarian): 25900 nM
GI50 (OVCAR-4 ovarian): 314 nM
TGI (OVCAR-4 ovarian): 7240 nM
GI50 (OVCAR-5 ovarian): 437 nM
TGI (OVCAR-5 ovarian): 11300 nM
GI50 (OVCAR-8 ovarian): 453 nM
TGI (OVCAR-8 ovarian): 13900 nM
GI50 (PC-3 prostate): 445 nM
TGI (PC-3 prostate): 12300 nM
GI50 (RPMI-8226 leukemia): 325 nM
TGI (RPMI-8226 leukemia): 3190 nM
GI50 (RXF 393 renal): 221 nM
TGI (RXF 393 renal): 1250 nM
GI50 (SF-268 CNS): 437 nM
TGI (SF-268 CNS): 5280 nM
GI50 (SF-295 CNS): 311 nM
TGI (SF-295 CNS): 4490 nM
GI50 (SF-539 CNS): 505 nM
TGI (SF-539 CNS): 3360 nM
GI50 (SK-MEL-2 melanoma): 531 nM
TGI (SK-MEL-2 melanoma): 2020 nM
GI50 (SK-MEL-28 melanoma): 703 nM
TGI (SK-MEL-28 melanoma): 6730 nM
GI50 (SK-MEL-5 melanoma): 1220 nM
TGI (SK-MEL-5 melanoma): 2520 nM
GI50 (SK-OV-3 ovarian): 391 nM
TGI (SK-OV-3 ovarian): 3690 nM
GI50 (SN12C renal): 395 nM
TGI (SN12C renal): 14700 nM
GI50 (SNB-19 CNS): 964 nM
TGI (SNB-19 CNS): 17200 nM
GI50 (SNB-75 CNS): 144 nM
TGI (SNB-75 CNS): 834 nM
GI50 (SR leukemia): 329 nM
TGI (SR leukemia): > 19900 nM
GI50 (SW-620 colon): 977 nM
TGI (SW-620 colon): 10800 nM
GI50 (T-47D breast): 233 nM
GI50 (TK-10 renal): 260 nM
TGI (TK-10 renal): 2000 nM
GI50 (U251 CNS): 714 nM
TGI (U251 CNS): 9580 nM
GI50 (UACC-257 melanoma): 1300 nM
TGI (UACC-257 melanoma): 6870 nM
GI50 (UACC-62 melanoma): 363 nM
TGI (UACC-62 melanoma): 2600 nM
GI50 (UO-31 renal): 142 nM
TGI (UO-31 renal): 4640 nM
